Assay results published in patent US20060014699A1, “Aqueous pharmaceutical formulaton comprising the thrombin inhibitor melagatran and use of the formulation in the manufacture of a medicament for use by nasal administration in treating thromboembolism” (AstraZeneca AB, priority 2002, published 2006).

Assays:
[1] = Bioavailability of intranasal melagatran in rats, with and without absorption enhancers; format: in vivo; conditions: rat, inhaled or intranasal
Procedure: Using standard techniques, melagatran was administered to rats in formulations with and without the enhancers SDS (sodium dodecyl sulfate) or EDTA. The bioavailability was measured by analysis of blood plasma samples using standrad techniques.

[2] = Safety and tolerability after intranasal administration to healthy male subjects; format: in vivo, human; conditions: healthy male humans, nasal administration, 5, 10 and 20 mg; blood pressure, heart rate, adverse events
Procedure: (§1) The rate and extent of absorption of melagatran as well as the safety and tolerability were investigated after intranasal administration to six healthy male subjects (between 20 and 40 years of age, body weight between 66 and 86 kg). The trial comprised three study days, separated by wash-out periods of 6-28 days. On study day 1, a single dose of 5 mg of melagatran was administered. The following two study days 10 mg and 20 mg, respectively, were administered.
(§2) Samples for determination of plasma concentration of melagatran (by LC-MS) and for degree of anticoagulation were collected before and up to 10 hours after drug administration. Safety measurements included blood pressure, heart rate and recording of adverse events.
(§3) The safety and tolerability of melagatran when administered nasally were considered satisfactory.

[3] = Rate and extent of absorption after intranasal administration to healthy male subjects; format: in vivo, human; conditions: healthy male humans; for bioavailability: male, human, plasma, inhaled or intranasal
Procedure: as §1, §2, §3

N=C(N)c1ccc(CNC(=O)[C@@H]2CCN2C(=O)[C@H](NCC(=O)O)C2CCCCC2)cc1 [melagatran, HOOC—CH2—(R)-Cgl-Aze-Pab]
bioavailability ([1]; 20 umol/kg, melagatran alone (no enhancer), blood plasma samples, read-out: bioavailability): ~10%
bioavailability ([1]; plasma, 20 μmol/kg, formulations with enhancers SDS or EDTA, read-out: bioavailability with enhancers): ≤ 19%
safety and tolerability [2]: satisfactory
dose dependence of rate or extent of absorption ([3]; intranasal, 5, 10 and 20 mg): no indication of a dose dependent rate or extent of absorption
absorption after intranasal administration (rate) ([3]; intranasal, 5-20 mg): rapid
bioavailability ([3]; 5 mg, intranasal, single dose 5 mg, six subjects, read-out: median bioavailability): 19%
bioavailability ([3]; 10 mg, intranasal, single dose 10 mg, six subjects, read-out: median bioavailability): 12%
bioavailability ([3]; 20 mg, intranasal, 5, 10 and 20 mg, read-out: bioavailability, range over the six subjects at the three doses): 7 to 45%
bioavailability ([3]; 20 mg, intranasal, single dose 20 mg, six subjects, read-out: median bioavailability): 19%
